Experimental data published in patent US4725683A, “Fluorophenoxyphenoxypropionates and derivatives thereof” (The Dow Chemical Company, priority 1985, dated 1988).

Experiments:
Type in all cases: in vivo
[1] = tested on: Annual Rye; experiment: Selective postemergence, track sprayer
How it was run: (§1)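 Read-out: visual injury at 2 weeks, 0 = no effect, 100 = complete kill. Plants ~10 cm tall in pots; track sprayer application in 280.6 L/ha water + 0.1% Tween-20; blank-sprayed controls.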

[2] = tested on: Barley; experiment: Selective postemergence, track sprayer
How it was run: as §1

[3] = tested on: Barnyardgrass; experiment: Selective postemergence, track sprayer
How it was run: as §1

[4] = tested on: Bermudagrass; experiment: Selective postemergence, track sprayer
How it was run: as §1

[5] = tested on: Broadleaf Signalgrass; experiment: Selective postemergence, track sprayer
How it was run: as §1

[6] = tested on: Canarygrass; experiment: Selective postemergence, track sprayer
How it was run: as §1

[7] = tested on: Crabgrass; experiment: Selective postemergence, track sprayer
How it was run: as §1

[8] = tested on: Giant Foxtail; experiment: Selective postemergence, track sprayer
How it was run: as §1

[9] = tested on: Barnyard Grass; experiment: Preemergent activity; conditions: Echinochloa crus-galli, pre-emergence, read-out: Preemergence Control; for pest or weed control at 70 g/ha: 0.07 kgs/hectare; for pest or weed control at 280 g/ha: 0.28 kgs/hectare
How it was run: (§2)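 Test compound was dissolved in acetone at twice the final concentration, then mixed with an equal volume of water containing 0.1% w/w Tween-20. The resulting emulsion was sprayed uniformly at a predetermined rate onto sandy loam seed beds sown with each species. Controls received acetone–Tween-20–water only.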

[10] = tested on: Wheat; experiment: Preemergent activity; conditions: Triticum aestivum, pre-emergence, read-out: Preemergence Control; for plant injury at 70 g/ha: 0.07 kgs/hectare; for plant injury at 280 g/ha: 0.28 kgs/hectare
How it was run: as §2

[11] = tested on: Yellow Foxtail; experiment: Preemergent activity; conditions: Setaria, pre-emergence, read-out: Preemergence Control; for pest or weed control at 70 g/ha: 0.07 kgs/hectare; for pest or weed control at 280 g/ha: 0.28 kgs/hectare
How it was run: as §2

SMILES: COC(=O)[C@@H](C)Oc1ccc(Oc2ccc(Br)cc2F)cc1 [4-Bromo-(R-Enantiomer), R enantiomer of 2-[4-(4-bromo-2-fluorophenoxy)phenoxy]propionic acid methyl ester]
- Percent Control ([1]; 0.00055 kgs/hectare): 0%
- Percent Control ([1]; 0.0011 kgs/hectare): 0%
- Percent Control ([1]; 0.0023 kgs/hectare): 0%
- Percent Control ([1]; 0.0045 kgs/hectare): 0%
- Percent Control ([1]; 0.009 kgs/hectare): 20%
- Percent Control ([1]; 0.018 kgs/hectare): 30%
- Percent Control ([1]; 0.035 kgs/hectare): 60%
- Percent Control ([1]; 0.07 kgs/hectare): 70%
- Percent Control ([1]; 0.14 kgs/hectare): 90%
- Percent Control ([1]; 0.28 kgs/hectare): 90%
- Percent Control ([2]; 0.00055 kgs/hectare): 0%
- Percent Control ([2]; 0.0011 kgs/hectare): 0%
- Percent Control ([2]; 0.0023 kgs/hectare): 0%
- Percent Control ([2]; 0.0045 kgs/hectare): 0%
- Percent Control ([2]; 0.009 kgs/hectare): 0%
- Percent Control ([2]; 0.018 kgs/hectare): 0%
- Percent Control ([2]; 0.035 kgs/hectare): 0%
- Percent Control ([2]; 0.07 kgs/hectare): 0%
- Percent Control ([2]; 0.14 kgs/hectare): 0%
- Percent Control ([2]; 0.28 kgs/hectare): 0%
- Percent Control ([3]; 0.00055 kgs/hectare): 90%
- Percent Control ([3]; 0.0011 kgs/hectare): 80%
- Percent Control ([3]; 0.0023 kgs/hectare): 100%
- Percent Control ([3]; 0.0045 kgs/hectare): 100%
- Percent Control ([3]; 0.009 kgs/hectare): 100%
- Percent Control ([3]; 0.018 kgs/hectare): 100%
- Percent Control ([3]; 0.035 kgs/hectare): 100%
- Percent Control ([3]; 0.07 kgs/hectare): 100%
- Percent Control ([3]; 0.14 kgs/hectare): 100%
- Percent Control ([3]; 0.28 kgs/hectare): 100%
- Percent Control ([4]; 0.00055 kgs/hectare): 0%
- Percent Control ([4]; 0.0011 kgs/hectare): 0%
- Percent Control ([4]; 0.0023 kgs/hectare): 0%
- Percent Control ([4]; 0.0045 kgs/hectare): 20%
- Percent Control ([4]; 0.009 kgs/hectare): 30%
- Percent Control ([4]; 0.018 kgs/hectare): 60%
- Percent Control ([4]; 0.035 kgs/hectare): 90%
- Percent Control ([4]; 0.07 kgs/hectare): 90%
- Percent Control ([4]; 0.14 kgs/hectare): 90%
- Percent Control ([4]; 0.28 kgs/hectare): 95%
- Percent Control ([5]; 0.00055 kgs/hectare): 50%
- Percent Control ([5]; 0.0011 kgs/hectare): 50%
- Percent Control ([5]; 0.0023 kgs/hectare): 50%
- Percent Control ([5]; 0.0045 kgs/hectare): 90%
- Percent Control ([5]; 0.009 kgs/hectare): 95%
- Percent Control ([5]; 0.018 kgs/hectare): 100%
- Percent Control ([5]; 0.035 kgs/hectare): 100%
- Percent Control ([5]; 0.07 kgs/hectare): 100%
- Percent Control ([5]; 0.14 kgs/hectare): 100%
- Percent Control ([5]; 0.28 kgs/hectare): 100%
- Percent Control ([6]; 0.00055 kgs/hectare): 0%
- Percent Control ([6]; 0.0011 kgs/hectare): 0%
- Percent Control ([6]; 0.0023 kgs/hectare): 0%
- Percent Control ([6]; 0.0045 kgs/hectare): 0%
- Percent Control ([6]; 0.009 kgs/hectare): 0%
- Percent Control ([6]; 0.018 kgs/hectare): 0%
- Percent Control ([6]; 0.035 kgs/hectare): 100%
- Percent Control ([6]; 0.07 kgs/hectare): 100%
- Percent Control ([6]; 0.14 kgs/hectare): 100%
- Percent Control ([6]; 0.28 kgs/hectare): 100%
- Percent Control ([7]; 0.00055 kgs/hectare): 0%
- Percent Control ([7]; 0.0011 kgs/hectare): 0%
- Percent Control ([7]; 0.0023 kgs/hectare): 0%
- Percent Control ([7]; 0.0045 kgs/hectare): 50%
- Percent Control ([7]; 0.009 kgs/hectare): 90%
- Percent Control ([7]; 0.018 kgs/hectare): 90%
- Percent Control ([7]; 0.035 kgs/hectare): 70%
- Percent Control ([7]; 0.07 kgs/hectare): 100%
- Percent Control ([7]; 0.14 kgs/hectare): 100%
- Percent Control ([7]; 0.28 kgs/hectare): 100%
- Percent Control ([8]; 0.00055 kgs/hectare): 80%
- Percent Control ([8]; 0.0011 kgs/hectare): 100%
- Percent Control ([8]; 0.0023 kgs/hectare): 100%
- Percent Control ([8]; 0.0045 kgs/hectare): 100%
- Percent Control ([8]; 0.009 kgs/hectare): 100%
- Percent Control ([8]; 0.018 kgs/hectare): 100%
- Percent Control ([8]; 0.035 kgs/hectare): 100%
- Percent Control ([8]; 0.07 kgs/hectare): 100%
- Percent Control ([8]; 0.14 kgs/hectare): 100%
- Percent Control ([8]; 0.28 kgs/hectare): 100%

SMILES: COC(=O)C(C)Oc1ccc(Oc2ccc(C(F)(F)F)cc2F)cc1 (centres unmarked) [2-[4-(2-fluoro-4-trifluoromethylphenoxy)phenoxy]propionic acid methyl ester]
- pest or weed control at 18 g/ha ([9]; 0.018 kgs/hectare): 20%
- pest or weed control at 35 g/ha ([9]; 0.035 kgs/hectare): 70%
- pest or weed control at 70 g/ha [9]: 80%
- pest or weed control at 114 g/ha ([9]; 0.114 kgs/hectare): 100%
- pest or weed control at 280 g/ha [9]: 100%
- plant injury at 18 g/ha ([10]; 0.018 kgs/hectare): 0%
- plant injury at 35 g/ha ([10]; 0.035 kgs/hectare): 20%
- plant injury at 70 g/ha [10]: 90%
- plant injury at 114 g/ha ([10]; 0.114 kgs/hectare): 100%
- plant injury at 280 g/ha [10]: 100%
- pest or weed control at 18 g/ha ([11]; 0.018 kgs/hectare): 20%
- pest or weed control at 35 g/ha ([11]; 0.035 kgs/hectare): 70%
- pest or weed control at 70 g/ha [11]: 100%
- pest or weed control at 114 g/ha ([11]; 0.114 kgs/hectare): 100%
- pest or weed control at 280 g/ha [11]: 100%

SMILES: COC(=O)C(C)Oc1ccc(Oc2ccc(Cl)cc2F)cc1 (racemic) [Example 4-Chloro-, 2-[4-(4-chloro-2-fluorophenoxy)phenoxy]propionic acid methyl ester]
- pest or weed control at 70 g/ha [9]: 40%
- pest or weed control at 140 g/ha ([9]; 0.14 kgs/hectare): 98%
- pest or weed control at 280 g/ha [9]: 98%
- pest or weed control at 560 g/ha ([9]; 0.56 kgs/hectare): 100%
- pest or weed control at 1120 g/ha ([9]; 1.12 kgs/hectare): 100%
- plant injury at 70 g/ha [10]: 0%
- plant injury at 140 g/ha ([10]; 0.14 kgs/hectare): 0%
- plant injury at 280 g/ha [10]: 0%
- plant injury at 560 g/ha ([10]; 0.56 kgs/hectare): 0%
- plant injury at 1120 g/ha ([10]; 1.12 kgs/hectare): 0%
- pest or weed control at 70 g/ha [11]: 0%
- pest or weed control at 140 g/ha ([11]; 0.14 kgs/hectare): 10%
- pest or weed control at 280 g/ha [11]: 90%
- pest or weed control at 560 g/ha ([11]; 0.56 kgs/hectare): 95%
- pest or weed control at 1120 g/ha ([11]; 1.12 kgs/hectare): 95%

SMILES: COC(=O)C(C)Oc1ccc(Oc2ccc(Br)cc2F)cc1 (racemic) [Example 4-Bromo-, 2-[4-(4-bromo-2-fluorophenoxy)phenoxy]propionic acid methyl ester]
- Percent Control ([1]; 0.0011 kgs/hectare): 0%
- Percent Control ([1]; 0.0023 kgs/hectare): 0%
- Percent Control ([1]; 0.0045 kgs/hectare): 0%
- Percent Control ([1]; 0.009 kgs/hectare): 20%
- Percent Control ([1]; 0.035 kgs/hectare): 40%
- Percent Control ([1]; 0.07 kgs/hectare): 100%
- Percent Control ([1]; 0.14 kgs/hectare): 100%
- Percent Control ([1]; 0.28 kgs/hectare): 100%
- Percent Control ([1]; 0.56 kgs/hectare): 100%
- Percent Control ([2]; 0.0011 kgs/hectare): 0%
- Percent Control ([2]; 0.0023 kgs/hectare): 0%
- Percent Control ([2]; 0.0045 kgs/hectare): 0%
- Percent Control ([2]; 0.009 kgs/hectare): 0%
- Percent Control ([2]; 0.018 kgs/hectare): 0%
- Percent Control ([2]; 0.035 kgs/hectare): 0%
- Percent Control ([2]; 0.07 kgs/hectare): 0%
- Percent Control ([2]; 0.14 kgs/hectare): 10%
- Percent Control ([2]; 0.28 kgs/hectare): 20%
- Percent Control ([2]; 0.56 kgs/hectare): 50%
- Percent Control ([3]; 0.0011 kgs/hectare): 40%
- Percent Control ([3]; 0.0023 kgs/hectare): 70%
- Percent Control ([3]; 0.0045 kgs/hectare): 100%
- Percent Control ([3]; 0.009 kgs/hectare): 100%
- Percent Control ([3]; 0.035 kgs/hectare): 100%
- Percent Control ([3]; 0.07 kgs/hectare): 100%
- Percent Control ([3]; 0.14 kgs/hectare): 100%
- Percent Control ([3]; 0.28 kgs/hectare): 100%
- Percent Control ([3]; 0.56 kgs/hectare): 100%
- Percent Control ([4]; 0.0011 kgs/hectare): 0%
- Percent Control ([4]; 0.0023 kgs/hectare): 0%
- Percent Control ([4]; 0.0045 kgs/hectare): 0%
- Percent Control ([4]; 0.009 kgs/hectare): 20%
- Percent Control ([4]; 0.035 kgs/hectare): 90%
- Percent Control ([4]; 0.07 kgs/hectare): 95%
- Percent Control ([4]; 0.14 kgs/hectare): 90%
- Percent Control ([4]; 0.28 kgs/hectare): 100%
- Percent Control ([4]; 0.56 kgs/hectare): 100%
- Percent Control ([5]; 0.0011 kgs/hectare): 70%
- Percent Control ([5]; 0.0023 kgs/hectare): 90%
- Percent Control ([5]; 0.0045 kgs/hectare): 80%
- Percent Control ([5]; 0.009 kgs/hectare): 100%
- Percent Control ([5]; 0.035 kgs/hectare): 100%
- Percent Control ([5]; 0.07 kgs/hectare): 100%
- Percent Control ([5]; 0.14 kgs/hectare): 100%
- Percent Control ([5]; 0.28 kgs/hectare): 100%
- Percent Control ([5]; 0.56 kgs/hectare): 100%
- Percent Control ([6]; 0.0011 kgs/hectare): 0%
- Percent Control ([6]; 0.0023 kgs/hectare): 0%
- Percent Control ([6]; 0.0045 kgs/hectare): 0%
- Percent Control ([6]; 0.009 kgs/hectare): 0%
- Percent Control ([6]; 0.035 kgs/hectare): 50%
- Percent Control ([6]; 0.07 kgs/hectare): 100%
- Percent Control ([6]; 0.14 kgs/hectare): 100%
- Percent Control ([6]; 0.28 kgs/hectare): 100%
- Percent Control ([6]; 0.56 kgs/hectare): 100%
- Percent Control ([7]; 0.0011 kgs/hectare): 0%
- Percent Control ([7]; 0.0023 kgs/hectare): 0%
- Percent Control ([7]; 0.0045 kgs/hectare): 50%
- Percent Control ([7]; 0.009 kgs/hectare): 50%
- Percent Control ([7]; 0.035 kgs/hectare): 100%
- Percent Control ([7]; 0.07 kgs/hectare): 100%
- Percent Control ([7]; 0.14 kgs/hectare): 100%
- Percent Control ([7]; 0.28 kgs/hectare): 100%
- Percent Control ([7]; 0.56 kgs/hectare): 100%
- Percent Control ([8]; 0.0011 kgs/hectare): 100%
- Percent Control ([8]; 0.0023 kgs/hectare): 100%
- Percent Control ([8]; 0.0045 kgs/hectare): 100%
- Percent Control ([8]; 0.009 kgs/hectare): 100%
- Percent Control ([8]; 0.035 kgs/hectare): 100%
- Percent Control ([8]; 0.14 kgs/hectare): 100%
- Percent Control ([8]; 0.28 kgs/hectare): 100%
- Percent Control ([8]; 0.56 kgs/hectare): 100%
